“Also recorded” adds a separate entry of the source.
Key:
[1] = tested on: eosinophils obtained from blood samples of normal subjects; experiment: Eosinophil chemotactic experiment toward various chemotactic factors (time-lapse tracking; VD plot, CRT and CLT analysis); settings: for rate of cells having a high specific motility in the concentration gradient direction in the VD plot / Chemotaxis Lifetime (CLT) / migration duration time, in words / Chemotactic Response Time (CRT) / time course of migration start, in words: normal subject eosinophils; for rate of cells having a high specific motility in the concentration gradient direction in the VD plot: CCL3, CCL5 5 μM, CXCL12, fMLP, PGD2 1 μM, vs control without factor (N.C.); for Chemotaxis Lifetime (CLT) / migration duration time, in words / Chemotactic Response Time (CRT) / time course of migration start, in words: concentration gradient of factor; for Chemotactic Response Time (CRT) / time course of migration start, in words: ACR viewed at 5 and 45 minutes
Description: Blood samples were obtained from patients and normal subjects, after a confirmation of informed consent. The blood samples were subjected to hemolytic reaction by water treatment and centrifugal separation, repeated twice, and thereafter a magnetic cell separation method was conducted so as to separate eosinophil therefrom. MACS (Miltenyi Biotec GmbH, Germany) was used for the magnetic cell separation, and the separation was performed by the negative selection method using anti-human CD3, CD14, CD16, and CD19 antibody-labeled paramagnetic microbeads. The magnetic cell separation method was conducted pursuant to the manual of Miltenyi Biotec GmbH. The cells obtained were washed with PBS, and thereafter suspended in RPMI-HEPES culture medium containing 1% FCS at the concentration of 5×10^6 cells/ml, and used for the subsequent experiment.
Structural setting of the system and the measuring method were carried out according to the aforementioned procedure.
In the measurement, the observation support unit of the system was filled up with RPMI-HEPES medium containing 1% FCS, and maintained at 37° C. to have the cells and the chemotactic factor being injected, and thereafter, the state of the cells was subjected to the time-lapse imaging. […] Imaging was performed at time-lapse intervals of one minute, and twelve samples at the maximum per one holder were subjected to the imaging in parallel.
The aforementioned program was used for the identification and tracking of the cell. […] With this software, when a user highlighted an area in the image as an analysis target, the cells in the area were identified and tracking was executed. Automatic cell tracking was performed according to the following procedure; a positional change in the time-lapse image was corrected, and then a position of the cell being the closest in the adjacent time-frame photo was sequentially designated and stored. Since an error might be included in the automatic cell tracking, the migratory pathway of the cell being obtained was appropriately corrected based on a visual judgment by a human. […] According to the obtained migratory pathway information of the cells, one by one, time-series data such as the position, velocity, and directionality of the cells was acquired. In order to avoid exerting an effect of artificial bias on the data, a third person, who was not informed of the details of the experiment, conducted the cell identification and tracking works by using the present software.
VD plot (Velocity-Direction plot) was obtained by calculating median values, as to the values of the time-series data of the velocity and directionality of individual cells, plotting the median value of velocity on the vertical axis and the median value of directionality on the horizontal axis. A gate was set on the graph surface, indicating an index of the cellular chemotaxis, and a rate of the cells included in the gate was obtained. Mann-Whitney U-test was employed for a difference test concerning the rate of the cells.
In the calculation of Chemotactic Response Time (CRT) and of Chemotaxis Lifetime (CLT) of the cell, an Exponential Moving Average (EMA) was calculated based on time-series data of the cell migration velocity, and the cellular chemotaxis was defined by the state where the value of EMA exceeded a certain threshold. In other words, CRT was a time period from start of the measurement until the time when the EMA firstly exceeded the threshold, and an elapsed time from the time when EMA firstly exceeded the threshold until it fell below the threshold was CLT.

[2] = tested on: eosinophils from normal, allergy/atopy and asthma patient donors; experiment: Chemotaxis analysis of eosinophils of allergy/atopy and asthma patients compared with normal subjects (TAXIScan; VD plot, CRT and CLT analysis)

For CSCC[C@H](NC=O)C(=O)N[C@@H](CC(C)C)C(=O)N[C@@H](Cc1ccccc1)C(=O)O [fMLP, N-formyl-methionyl-leucyl-phenylalanine], the “rate of cells having a high specific motility in the concentration gradient direction in the VD plot” value (shortened to “rate … in the VD plot”) [1] was “little difference from the control”, the “Chemotaxis Lifetime (CLT) / migration duration time, in words” value [1] was “most of the cells stopped migration within 15 minutes; also recorded: relatively shorter than the other factors” and the “Chemotactic Response Time (CRT) / time course of migration start, in words” value [1] was “started moving gradually as time advanced”. The “share of eosinophils that migrated according to the CRT analysis” value ([1]; normal subjects) was “about half”, the “rate of cells that continued migration for five minutes or more (CLT analysis), patients compared to normal subjects” value ([2]; allergy/atopy patients and asthma patients vs normal subjects) was “not found a significant difference” and the “cell motility from VD plot, asthma patients (III) compared to normal subject (I)” value ([2]; eosinophils of asthma patients, PGD2 or fMLP 1 μM gradient) was “significant difference”. For the same molecule, the “CRT analysis: difference between patient groups and normal subjects” value ([2]; groups I, II, III) was “not a large difference”.

B1: CCL5: Recombinant Human RANTES (CCL5; Regulation upon Activation Normal T cell Express Sequence), purchased from PeproTech (protein, UniProt P13501 24-91, looked up)
C-C motif chemokine 5: SPYSSDTTPCCFAYIARPLPRAHIKEYFYTSGKCSNPAVVFVTRKNRQVCANPEKKWVREYINSLEMS
With B1 the “rate … in the VD plot” value [1] was “little difference from the control”, the “Chemotaxis Lifetime (CLT) / migration duration time, in words” value [1] was “long lifetime tendency” and the “Chemotactic Response Time (CRT) / time course of migration start, in words” value [1] was “hardly started migration; also recorded: turned up gradually after lapse of approximately one hour”.

B2: CCL3: Recombinant Human MIP-1 alpha (CCL3; Macrophage Inflammatory Protein-1 alpha), purchased from PeproTech (protein, UniProt P10147 24-92, looked up)
C-C motif chemokine 3: SLAADTPTACCFSYTSRQIPQNFIADYFETSSQCSKPGVIFLTKRSRQVCADPSEEWVQKYVSDLELSA
For B2, the “rate … in the VD plot” value [1] was “high motility”, the “Chemotaxis Lifetime (CLT) / migration duration time, in words” value [1] was “short relative to CCL5 or CXCL12” and the “Chemotactic Response Time (CRT) / time course of migration start, in words” value [1] was “started moving gradually as time advanced”.

Reference: patent US20120028288A1, “Method for Measuring Cell Motility and System Therefor” (priority 2005, published 2012)
